Experimental data reported in US20220249441A1, “Homodimeric Tobramycin Adjuvant Repurposes Novobiocin as an Effective Antibacterial Agent Against Gram-Negative Bacteria” (priority 2019, published 2022).

Columns and labels:
P. aeruginosa = experiment: Checkerboard assay (antibiotic + adjuvant combination MIC); assay type: cell-based, Pseudomonas aeruginosa; conditions: compound at 8 μM
Description: Antimicrobial Susceptibility Assay. The in vitro antimicrobial activity of all compounds/antibiotics against a panel of bacteria was evaluated by microbroth dilution method in accordance with the Clinical and Laboratory Standards Institute (CLSI) guidelines (using ATCC strains as quality control strains) (54). Overnight grown bacterial cultures were diluted in saline to achieve a 0.5 McFarland turbidity, followed by 1:50 dilution in Mueller-Hinton broth (MHB) for inoculation to a final concentration of approximately 5×10^5 CFU/mL. […] The lowest concentration that prevented the visible growth of bacteria was defined as the MIC for each antimicrobial agent. The broth with or without bacterial cells was used as positive or negative control, respectively.
Checkerboard Assay. Combination studies with different antibiotics were performed in 96-well plates as previously described (19). Briefly, the antibiotic of interest was serially diluted in MHB along the abscissa while the adjuvant (tobramycin homodimer) was serially diluted in MHB along the ordinate. This creates a 10×7 matrices wherein each well consists of a combination of different antibiotic and adjuvant concentrations. Overnight grown bacterial cultures were diluted in saline to achieve a 0.5 McFarland turbidity, followed by 1:50 dilution in Mueller-Hinton broth (MHB) for inoculation to a final concentration of approximately 5×10^5 CFU/mL. […] MIC was recorded as wells with the lowest concentration of drugs with no bacterial growth. The fractional inhibitory concentration (FIC) for each antibiotic was calculated by dividing the MIC of the antibiotic in the presence of adjuvant by the MIC of the antibiotic alone. Similarly, the FIC of adjuvant was calculated by dividing the MIC of the adjuvant in the presence of antibiotic by the MIC of the adjuvant alone. FIC index is the sum of both FICs. FIC indices of ≤0.5 were deemed synergistic; >0.5-4, no interaction; and >4, antagonistic.

[1] = test system: P. aeruginosa PAO1 and efflux deficient mutants, MDR/XDR isolates; experiment: microbe, parasite or virus in culture; assay type: cell-based, Pseudomonas aeruginosa
Description: Antimicrobial Susceptibility Assay. The in vitro antimicrobial activity of all compounds/antibiotics against a panel of bacteria was evaluated by microbroth dilution method in accordance with the Clinical and Laboratory Standards Institute (CLSI) guidelines (using ATCC strains as quality control strains) (54). […] The broth with or without bacterial cells was used as positive or negative control, respectively.

Q: NC[C@H]1O[C@H](O[C@H]2[C@H](OCCCCc3cn(CCCCO[C@@H]4[C@@H](O[C@H]5O[C@H](CO)[C@@H](O)[C@H](N)[C@H]5O)[C@H](N)C[C@H](N)[C@H]4O[C@H]4O[C@H](CN)[C@@H](O)C[C@H]4N)nn3)[C@@H](O[C@H]3O[C@H](CO)[C@@H](O)[C@H](N)[C@H]3O)[C@H](N)C[C@@H]2N)[C@H](N)C[C@@H]1O.O=C(O)C(F)(F)F.O=C(O)C(F)(F)F.O=C(O)C(F)(F)F.O=C(O)C(F)(F)F.O=C(O)C(F)(F)F.O=C(O)C(F)(F)F.O=C(O)C(F)(F)F.O=C(O)C(F)(F)F.O=C(O)C(F)(F)F.O=C(O)C(F)(F)F [Compound 23, Tobramycin homodimer] was tested. Which MIC of Aztreonam + compound (P. aeruginosa; P. aeruginosa PAO1) did it give?
A: The MIC of Aztreonam + compound was 0.25 µg/mL.

Q: What about the MIC of Ceftazidime + compound (P. aeruginosa; P. aeruginosa PAO1) of the same compound?
A: The MIC of Ceftazidime + compound was 0.25 µg/mL.

Q: What about the MIC of Imipenem + compound (P. aeruginosa; P. aeruginosa PAO1) of the same compound?
A: The MIC of Imipenem + compound was 1 µg/mL.

Q: And the MIC of Piperacillin + compound (P. aeruginosa; P. aeruginosa PAO1)?
A: Its MIC of Piperacillin + compound is 0.5 µg/mL.

Q: And the MIC of ATM in the presence of compound (P. aeruginosa; PA 259-96918)?
A: The MIC of ATM in the presence of compound was 8 µg/mL.

Q: And the MIC of CAZ in the presence of compound (P. aeruginosa; PA 259-96918)?
A: Its MIC of CAZ in the presence of compound is 128 µg/mL.

Q: What about the MIC of IPM in the presence of compound (P. aeruginosa; PA 259-96918) of the same compound?
A: Its MIC of IPM in the presence of compound is 32 µg/mL.

Q: And the MIC of ATM in the presence of compound (P. aeruginosa; PA 260-97103)?
A: The MIC of ATM in the presence of compound was 16 µg/mL.

Q: And the MIC of CAZ in the presence of compound (P. aeruginosa; PA 260-97103)?
A: The MIC of CAZ in the presence of compound was 8 µg/mL.

Q: What about the MIC of IPM in the presence of compound (P. aeruginosa; PA 260-97103) of the same compound?
A: The MIC of IPM in the presence of compound was 16 µg/mL.

Q: What about the MIC of ATM in the presence of compound (P. aeruginosa; PA 262-101856) of the same compound?
A: Its MIC of ATM in the presence of compound is 8 µg/mL.

Q: What about the MIC of CAZ in the presence of compound (P. aeruginosa; PA 262-101856) of the same compound?
A: Its MIC of CAZ in the presence of compound is 2 µg/mL.

Q: What about the MIC of IPM in the presence of compound (P. aeruginosa; PA 262-101856) of the same compound?
A: Its MIC of IPM in the presence of compound is 2 µg/mL.

Q: And the MIC of ATM in the presence of compound (P. aeruginosa; PA 264-104354)?
A: The MIC of ATM in the presence of compound was 8 µg/mL.

Q: And the MIC of CAZ in the presence of compound (P. aeruginosa; PA 264-104354)?
A: The MIC of CAZ in the presence of compound was 32 µg/mL.

Q: And the MIC of IPM in the presence of compound (P. aeruginosa; PA 264-104354)?
A: Its MIC of IPM in the presence of compound is 4 µg/mL.

Q: What about the MIC of ATM in the presence of compound (P. aeruginosa; PA 86052) of the same compound?
A: Its MIC of ATM in the presence of compound is 8 µg/mL.

Q: And the MIC of CAZ in the presence of compound (P. aeruginosa; PA 86052)?
A: Its MIC of CAZ in the presence of compound is 64 µg/mL.

Q: And the MIC of IPM in the presence of compound (P. aeruginosa; PA 86052)?
A: Its MIC of IPM in the presence of compound is 16 µg/mL.

Q: What about the MIC of ATM in the presence of compound (P. aeruginosa; PA 88949) of the same compound?
A: Its MIC of ATM in the presence of compound is 32 µg/mL.

Q: And the MIC of CAZ in the presence of compound (P. aeruginosa; PA 88949)?
A: Its MIC of CAZ in the presence of compound is 16 µg/mL.

Q: And the MIC of IPM in the presence of compound (P. aeruginosa; PA 88949)?
A: Its MIC of IPM in the presence of compound is 4 µg/mL.

Q: What about the MIC of ATM in the presence of compound (P. aeruginosa; PA 91433) of the same compound?
A: The MIC of ATM in the presence of compound was 4 µg/mL.

Q: And the MIC of CAZ in the presence of compound (P. aeruginosa; PA 91433)?
A: Its MIC of CAZ in the presence of compound is 1 µg/mL.

Q: What about the MIC of IPM in the presence of compound (P. aeruginosa; PA 91433) of the same compound?
A: The MIC of IPM in the presence of compound was 4 µg/mL.

Q: And the MIC of ATM in the presence of compound (P. aeruginosa; PA 100036)?
A: The MIC of ATM in the presence of compound was 2 µg/mL.

Q: What about the MIC of CAZ in the presence of compound (P. aeruginosa; PA 100036) of the same compound?
A: The MIC of CAZ in the presence of compound was 2 µg/mL.

Q: What about the MIC of IPM in the presence of compound (P. aeruginosa; PA 100036) of the same compound?
A: Its MIC of IPM in the presence of compound is 4 µg/mL.

Q: And the MIC of ATM in the presence of compound (P. aeruginosa; PA 101243)?
A: Its MIC of ATM in the presence of compound is 16 µg/mL.

Q: And the MIC of CAZ in the presence of compound (P. aeruginosa; PA 101243)?
A: The MIC of CAZ in the presence of compound was 64 µg/mL.

Q: What about the MIC of IPM in the presence of compound (P. aeruginosa; PA 101243) of the same compound?
A: Its MIC of IPM in the presence of compound is 8 µg/mL.

Q: And the MIC of ATM in the presence of compound (P. aeruginosa; PA 101885)?
A: The MIC of ATM in the presence of compound was 4 µg/mL.

Q: What about the MIC of CAZ in the presence of compound (P. aeruginosa; PA 101885) of the same compound?
A: Its MIC of CAZ in the presence of compound is 2 µg/mL.

Q: And the MIC of IPM in the presence of compound (P. aeruginosa; PA 101885)?
A: Its MIC of IPM in the presence of compound is 4 µg/mL.

Q: What about the MIC of ATM in the presence of compound (P. aeruginosa; PA 107092) of the same compound?
A: Its MIC of ATM in the presence of compound is 16 µg/mL.

Q: What about the MIC of CAZ in the presence of compound (P. aeruginosa; PA 107092) of the same compound?
A: The MIC of CAZ in the presence of compound was 32 µg/mL.

Q: What about the MIC of IPM in the presence of compound (P. aeruginosa; PA 107092) of the same compound?
A: The MIC of IPM in the presence of compound was 16 µg/mL.

Q: What about the MIC of ATM in the presence of compound (P. aeruginosa; PA 108590) of the same compound?
A: Its MIC of ATM in the presence of compound is 8 µg/mL.

Q: What about the MIC of CAZ in the presence of compound (P. aeruginosa; PA 108590) of the same compound?
A: Its MIC of CAZ in the presence of compound is 8 µg/mL.

Q: What about the MIC of IPM in the presence of compound (P. aeruginosa; PA 108590) of the same compound?
A: Its MIC of IPM in the presence of compound is 4 µg/mL.

Q: And the MIC of ATM in the presence of compound (P. aeruginosa; PA 109084)?
A: The MIC of ATM in the presence of compound was 8 µg/mL.

Q: And the MIC of CAZ in the presence of compound (P. aeruginosa; PA 109084)?
A: The MIC of CAZ in the presence of compound was 32 µg/mL.

Q: And the MIC of IPM in the presence of compound (P. aeruginosa; PA 109084)?
A: The MIC of IPM in the presence of compound was 8 µg/mL.

Q: And the MIC of ATM in the presence of compound (P. aeruginosa; PA 114228)?
A: Its MIC of ATM in the presence of compound is 4 µg/mL.

Q: And the MIC of CAZ in the presence of compound (P. aeruginosa; PA 114228)?
A: The MIC of CAZ in the presence of compound was 1 µg/mL.

Q: And the MIC of IPM in the presence of compound (P. aeruginosa; PA 114228)?
A: The MIC of IPM in the presence of compound was 0.5 µg/mL.

Q: And the MIC of ATM in the presence of compound (P. aeruginosa; PA O200 (efflux-deficient))?
A: Its MIC of ATM in the presence of compound is 0.03 µg/mL.

Q: And the MIC of CAZ in the presence of compound (P. aeruginosa; PA O200 (efflux-deficient))?
A: The MIC of CAZ in the presence of compound was 0.13 µg/mL.

Q: And the MIC of IPM in the presence of compound (P. aeruginosa; PA O200 (efflux-deficient))?
A: Its MIC of IPM in the presence of compound is 1 µg/mL.

Q: What about the MIC of ATM in the presence of compound (P. aeruginosa; PA O750 (efflux-deficient)) of the same compound?
A: Its MIC of ATM in the presence of compound is 0.06 µg/mL.

Q: And the MIC of CAZ in the presence of compound (P. aeruginosa; PA O750 (efflux-deficient))?
A: Its MIC of CAZ in the presence of compound is 0.06 µg/mL.

Q: What about the MIC of IPM in the presence of compound (P. aeruginosa; PA O750 (efflux-deficient)) of the same compound?
A: The MIC of IPM in the presence of compound was 1 µg/mL.

Q: And the MIC of ATM in the presence of compound (P. aeruginosa; PAO1)?
A: The MIC of ATM in the presence of compound was 0.25 µg/mL.

Q: And the MIC of CAZ in the presence of compound (P. aeruginosa; PAO1)?
A: The MIC of CAZ in the presence of compound was 0.25 µg/mL.

Q: And the MIC of IPM in the presence of compound (P. aeruginosa; PAO1)?
A: The MIC of IPM in the presence of compound was 1 µg/mL.

Q: What about the “resistant isolates in which CLSI breakpoint was attained for aztreonam” value (P. aeruginosa) of the same compound?
A: The value was “eleven out of thirteen”.

Q: And the “resistant isolates in which CLSI breakpoint was attained for ceftazidime” value (P. aeruginosa)?
A: Its value is “four out of eleven”.

Q: What about the “resistant isolates in which CLSI breakpoint was attained for imipenem” value (P. aeruginosa) of the same compound?
A: Its value is “five out of seventeen”.

Q: And the MIC ([1]; PAO1 (wild-type))?
A: Its MIC is over 128 µg/mL.

Q: What about the MIC ([1]; PAO200 (first column so headed)) of the same compound?
A: The MIC was over 128 µg/mL.

Q: What about the MIC ([1]; PAO200 (second column so headed)) of the same compound?
A: The MIC was over 128 µg/mL.
